Reference: patent publication US6764826B2, “Inhibitors of C-reactive protein induced inflammation” (Board of Regents, The University of Texas System, priority 2000, dated 2004)
“Also recorded” adds a separate entry of the source.

Legend:
[1] = test system: MCP-1 Induction by CRP; experiment: Modulation of CRP effects by statin, aspirin and PPAR activators: MCP-1 secretion in HUVEC, sandwich ELISA; type: cell-based, human; conditions: for effect on induction of MCP-1 by CRP (in words): test substance 10 μM
Procedure: Experiments were performed in HUVEC. […] After 2 hours, the cells were incubated with C-reactive protein or with IL-1β 10 ng/mL for 24 hours. […] Secretion of MCP-1 and RANTES were assessed by sandwich ELISA (Colorimetric Quantikine, by R and D Systems). All determinations were performed in duplicate. Data were expressed as mean±SD of 5-6 separate experiments. Cell viability was assessed by staining with trypan blue.

[2] = test system: human umbilical vein endothelial cells (HUVEC); experiment: Adhesion molecule expression in HUVEC by FACS, in the presence of serum; type: cell-based
Procedure: All experiments were performed on human umbilical vein endothelial cells (HUVEC, from Cascade Biology). HUVEC were grown in M199 medium with endothelial cell growth supplement, heparin and 15% fetal bovine serum or human serum. Cells were used at passage 2 to 4.
(§1) HUVEC were incubated with human C-reactive protein at the concentration indicated for 24 hours. Cells were detached by incubation with 10 mmol/L EDTA in PBS (without trypsin), washed with PBS buffer and suspended in PBS with 1% FBS and 0.1% sodium azide. Cell were then stained with R-Phycoerythrin labeled monoclonal antibodies (Pharmingen) against the adhesion molecules VCAM-1 (CD106) or ICAM-1 (CD54) or with Phycoerythrin labeled isotype IgG as control. For detection of E-selectin, HUVEC were incubated for 6 hours with C-reactive protein and then stained with a FITC labeled monoclonal antibody against E-selectin (RandD Systems) or the appropriate isotype control (Pasceri et al., 2000). R-Phycoerythrin labeled monoclonal antibodies (Pharmingen) against the C-reactive protein receptors FCγRI and FCγRII (Marnell et al., 1995; Bharadwaj et al., 1999) were also used.
(§2) The staining procedure was performed on ice for 30 minutes, followed by washing. The fluorescence intensity of 9000 cells for each sample was quantified by a FACS CaliburTM analyser (Becton Dickinson). All experiments were performed in triplicate.

[3] = test system: HUVEC; experiment: MCP-1 secretion by HUVEC, sandwich ELISA; type: cell-based, human
Procedure: (§3) Experiments were performed in HUVEC, cultured in 12-well plates in basic endothelial cell medium CS-C, with 10 mM HEPES and 15% human serum (Sigma). Culture supernatants were collected 6-24 hours after stimulation with either IL-1β or CRP, at the concentration indicated. Secretion of MCP-1 and RANTES were assessed by sandwich ELISA (Colorimetric Quantikine, by R and D Systems). All determinations were performed in duplicate. Data were expressed as mean±SD of 5-6 separate experiments. Cell viability was assessed by staining with trypan blue.

[4] = test system: human umbilical vein endothelial cells (HUVEC); experiment: Adhesion molecule expression in HUVEC by FACS, serum-free medium; type: cell-based
Procedure: as §1, with “protein similar to Example 2 except in” for “protein at”, “the absence of serum.” for “the concentration indicated for 24 hours.”, “with” for “with 1% FBS and”
as §2

[5] = test system: human umbilical vein endothelial cells (HUVEC); experiment: Adhesion molecule expression in HUVEC by FACS, in the presence of serum; type: cell-based; conditions: 24-hour incubation, HUVEC with human serum
[6] = test system: HUVEC; experiment: RANTES secretion by HUVEC, sandwich ELISA; type: cell-based, human
Procedure: as §3

[7] = CRP 100 μg/mL + test substance 100 μmol/L
[8] = CRP 100 μg/mL + test substance 1 mmol/L
[9] = Homo sapiens, HUVEC, CRP 100 μg/mL + test substance 100 μmol/L
[10] = CRP 100 μg/mL + test substance 20 μmol/L
[11] = CRP 100 μg/mL + test substance 50 μmol/L
[12] = CRP 100 μg/mL + test substance 200 μmol/L
[13] = CRP 100 μg/mL + test substance 10 μmol/L
[14] = C-reactive protein 10 μg/mL, 24-hour incubation, HUVEC with human serum

CC(=O)Oc1ccccc1C(=O)O [aspirin]
-Fold Increase in MCP-1 conc. [1, 7]: 6.7 ± 1.9 -Fold
MCP-1 conc. [1, 7]: 14.6 ± 6.7 ng/mL
-Fold Increase in MCP-1 conc. [1, 8]: 6.4 ± 1.8 -Fold
MCP-1 conc. [1, 8]: 13.7 ± 6.7 ng/mL
MCP-1 secretion, % of maximal CRP-induced response at 100 µM [1, 9]: 104%
MCP-1 secretion, % of maximal CRP-induced response at 1000 µM ([1]; Homo sapiens, HUVEC, CRP 100 μg/mL + test substance 1 mmol/L): 102%
effect on the effects of C-reactive protein (MCP-1 induction, in words) ([1]; high concentration, up to 1 mM): did not inhibit

Cc1c(C)c2c(c(C)c1O)CCC(C)(COc1ccc(CC3SC(=O)NC3=O)cc1)O2 (stereo not shown) [troglitazone]
-Fold Increase in MCP-1 conc. [1, 10]: 5.2 ± 1.7 -Fold
MCP-1 conc. [1, 10]: 11.4 ± 5.2 ng/mL
MCP-1 secretion, % of maximal CRP-induced response at 20 µM ([1]; Homo sapiens, HUVEC, CRP 100 μg/mL + test substance 20 μmol/L): 83%

CC1(COc2ccc(CC3SC(=O)NC3=O)cc2)CCCCC1 (stereo not shown) [ciglitazone]
-Fold Increase in MCP-1 conc. [1, 11]: 4.8 ± 1.5 -Fold
MCP-1 conc. [1, 11]: 10.2 ± 4.6 ng/mL
-Fold Increase in MCP-1 conc. [1, 7]: 4.1 ± 1.0 -Fold
MCP-1 conc. [1, 7]: 8.7 ± 3.4 ng/mL
-Fold Increase in MCP-1 conc. [1, 12]: 2.7 ± 0.8 -Fold
MCP-1 conc. [1, 12]: 5.9 ± 2.5 ng/mL
MCP-1 secretion, % of maximal CRP-induced response at 50 µM ([1]; Homo sapiens, HUVEC, CRP 100 μg/mL + test substance 50 μmol/L): 74%
MCP-1 secretion, % of maximal CRP-induced response at 100 µM [1, 9]: 65%
MCP-1 secretion, % of maximal CRP-induced response at 200 µM ([1]; Homo sapiens, HUVEC, CRP 100 μg/mL + test substance 200 μmol/L): 42%

CCCCC/C=C/C=C1/C(=O)C=C[C@@H]1C/C=C\CCCC(=O)O [15d-PGJ2, 15-deoxy-^Δ12,14-prostaglandin J2]
% of Maximal Response [1, 13]: 24%
-Fold Increase in MCP-1 conc. [1, 13]: 1.5 ± 0.6 -Fold
MCP-1 conc. [1, 13]: 3.4 ± 1.6 ng/mL
effect on induction of MCP-1 by CRP (in words) [1]: almost completely abolished

Cc1cccc(Nc2cc(Cl)nc(SCC(=O)O)n2)c1C [Wy 14649]
% of Maximal Response [1, 13]: 101%
-Fold Increase in MCP-1 conc. [1, 13]: 6.4 ± 2.1 -Fold
MCP-1 conc. [1, 13]: 13.9 ± 6.0 ng/mL
% of Maximal Response [1, 7]: 30%
-Fold Increase in MCP-1 conc. [1, 7]: 1.9 ± 0.9 -Fold
MCP-1 conc. [1, 7]: 4.2 ± 2.2 ng/mL
effect on induction of MCP-1 by CRP (in words) [1]: no effect
effect on secretion of MCP-1 induced by CRP (in words) ([1]; test substance 100 μM): completely inhibited

interleukin-1: Interleukin-1 provided by RandD systems; a well known activator of endothelial cells
induction of adhesion molecules expression compared with C-reactive protein 10 μg/mL ([2]; interleukin-1 10 ng/mL, same time-intervals (24-hour; 6-hour for E-selectin), HUVEC with human serum): similar
MCP-1 response in absence of serum ([3]; IL-1β, serum-free medium): absence of serum did not change the response
MCP-1 concentration ([3]; Interleukin-1β 10 ng/mL, 15% human serum): 8.6 ± 3.7 ng/mL
expression of adhesion molecules ([4]; interleukin-1, serum-free medium): able to induce adhesion molecules
E-selectin expression [5]: no increase
RANTES expression ([6]; Interleukin-1β 10 ng/mL): did not induce

CC(C)OC(=O)C(C)(C)Oc1ccc(C(=O)c2ccc(Cl)cc2)cc1 [fenofibrate]
-Fold Increase in MCP-1 conc. [1, 7]: 0.9 ± 0.2 -Fold
MCP-1 conc. [1, 7]: 2.1 ± 0.6 ng/mL
MCP-1 secretion, % of maximal CRP-induced response at 100 µM [1, 9]: 15%

B1: CRP: Recombinant human C-reactive protein purchased from Biochem; acute phase reactant protein (protein, UniProt P02741 19-224, looked up)
C-reactive protein: QTDMSRKAFVFPKESDTSYVSLKAPLTKPLKAFTVCLHFYTELSSTRGYSIFSYATKRQDNEILIFWSKDIGYSFTVGGSEILFEVPEVTVAPVHICTSWESASGIVEFWVDGKPRVRKSLKKGYTVGAEASIILGQEQDSFGGNFEGSQSLVGDIGNVNMWDFVLSPDEINTIYLGGPFSPNVLNWRALKYEVQGEVFTKPQLWP
% of Maximal Response ([1]; CRP 100 μg/mL alone, 24 hours): 100%
-Fold Increase in MCP-1 conc. ([1]; CRP 100 μg/mL alone, 24 hours): 6.3 ± 1.8 -Fold
MCP-1 conc. ([1]; CRP 100 μg/mL alone, 24 hours): 13.6 ± 5.4 ng/mL
E-selectin expression ([2]; C-reactive protein 10 μg/mL, 6-hour incubation, HUVEC with human serum): significant increase
ICAM-1 expression [2, 14]: large increase
VCAM-1 expression [2, 14]: significant increase
VCAM-1 expression ([2]; C-reactive protein 10 μg/mL, 24-hour incubation, HUVEC with human serum, listed as recombinant C-reactive protein): large increase
further increase in adhesion molecules expression on increase of concentration ([2]; C-reactive protein up to 100 μg/mL, compared with 10 μg/mL, 4th passage cells, 15% human serum): only a modest further increase
further adhesion molecules induction on increase of concentration ([2]; C-reactive protein up to 200 μg/mL, compared with 10 μg/mL): only a modest further adhesion molecules induction
C-reactive protein concentration at which adhesion molecule expression is nearly maximum ([2]; dose response, HUVEC with 15% human serum): 10 µg/mL
CRP concentration already giving significant induction of MCP-1 ([3]; 24-hour incubation, 15% human serum): 5 µg/mL
MCP-1 concentration ([3]; CRP 10 μg/mL, 24-hour incubation, 15% human serum, baseline 1.1±0.5): 2.4 ± 0.9 ng/mL
MCP-1 concentration ([3]; CRP 100 μg/mL (peak), 24-hour incubation, 15% human serum): 9.7 ± 4.8 ng/mL
MCP-1 concentrations ([3]; CRP 100 μg/mL, 24-hour, serum-free medium): did not induce a significant increase
fold-increase of MCP-1 secretion ([3]; CRP 100 μg/mL, 24-hour, versus human albumin 100 μg/mL, 15% human serum): 7 fold-increase
expression of adhesion molecules (ICAM-1, VCAM-1, E-selectin) ([4]; C-reactive protein 100 μg/mL, 24-hour (6-hour for E-selectin), serum-free medium): could not induce; also recorded: did not induce
E-selectin expression [5]: no increase
Secretion of RANTES ([6]; C-reactive protein 100 μg/mL, 15% human serum): not increased
